In patent US20210230313A1, “SULFUR-CONTAINING GLYCANS AND POLYSACCHARIDES AND METHODS OF CHEMOENZYMATIC SYNTHESIS THEREOF” (priority 2018, published 2021):

Key:
PmHS-B = assay: Radiochemical incorporation assay, co-polymerization with UDP-[3H]GlcA, paper chromatography; format: biochemical, Pasteurella multocida; details: GAG synthase PmHS-B 1 mg/ml; test UDP-sugar 0.5 mM; UDP-[3H]GlcA 0.08 mM; 30° C., 5.5 hours; * = significant thio-sugar incorporation into polymer
Procedure: (§1) For polymerization tests, for example, the various oligosaccharide acceptors were incubated with two types of UDP-sugars at 2 mM as noted under the same conditions as the single sugar extensions above. Radioactive UDP-sugars (e.g., UDP-[^3H]GlcA) were used to monitor co-polymerization reactions with the thiosugar-donors separated by various modes of chromatography. The general reaction catalyzed by a GAG synthase in these tests is:
(§2) n UDP-4S-HexNAc+n UDP-[^3H]GlcA+acceptor-->2n UDP+[4S-HexNAc+UDP-[^3H]GlcA]n-acceptor
(§3) where HexNAc is GlcNAc, GalNAc, or another sugar or sugar derivative. Reactions used radioactive UDP-GlcA (0.08 mM final; 0.1 microCi ^3H) and the authentic UDP-sugars (a positive control) or their thio-analogs (0.5 mM final) with a GAG synthase (1 mg/ml) in neutral pH buffer (50 mM Hepes, pH 7.2) with divalent cation (1 mM Mn^2+) at 30° C. for 5.5 hours (note: the HA [PmHAS] and chondroitin [PmCS] synthase reactions also employed the stabilizer 1M ethylene glycol). The reactions were quenched (2% SDS detergent), and analyzed by paper chromatography. The small radioactive UDP-sugar precursors are polymerized by the synthase, resulting in larger products (stay at the origin of the paper; any unused precursor migrates down the paper); such data is shown in Table 3.
(§4) Chimeric enzymes that included differing portions of both PmHS1 (GenBank Accession #AAL84702) and PmHS2 (GenBank Accession #AAQ55109) were created and tested for their ability to synthesize polymers from the sulfur-containing UDP-4-S-GlcNAc. As shown below in Table 2, the corresponding numbers describe the original residue numbers of the source parental synthase sequence as noted.
(§5) Overall, the Chimeric B construct (PmHS-B) appears to be the best catalyst tested thus far for incorporating 4-S-GlcNAc into a heparosan-like S-linked polymer.

PmHS-D = assay: as above; format: biochemical, Pasteurella multocida; details: GAG synthase PmHS-D 1 mg/ml; test UDP-sugar 0.5 mM; UDP-[3H]GlcA 0.08 mM; 30° C., 5.5 hours
Procedure: as §1, §2, §3, §4, §5

PmHS-G = assay: as above; format: biochemical, Pasteurella multocida; details: GAG synthase PmHS-G 1 mg/ml; test UDP-sugar 0.5 mM; UDP-[3H]GlcA 0.08 mM; 30° C., 5.5 hours; * = significant thio-sugar incorporation into polymer
Procedure: as §1, §2, §3, §4, §5

PmHS-I = assay: as above; format: biochemical, Pasteurella multocida; details: GAG synthase PmHS-I 1 mg/ml; test UDP-sugar 0.5 mM; UDP-[3H]GlcA 0.08 mM; 30° C., 5.5 hours
Procedure: as §1, §2, §3, §4, §5

PmHS-J = assay: as above; format: biochemical, Pasteurella multocida; details: GAG synthase PmHS-J 1 mg/ml; test UDP-sugar 0.5 mM; UDP-[3H]GlcA 0.08 mM; 30° C., 5.5 hours; * = significant thio-sugar incorporation into polymer
Procedure: as §1, §2, §3, §4, §5

PmHS-A = assay: as above; format: biochemical, Pasteurella multocida; details: GAG synthase PmHS-A 1 mg/ml; test UDP-sugar 0.5 mM; UDP-[3H]GlcA 0.08 mM; 30° C., 5.5 hours
Procedure: as §1, §2, §3, §4, §5

[1] = target: T1, bacterial heparin lyase III (Pedobacter heparinus, UniProt Q59289); assay: Heparin lyase III challenge of HEP polymers, PAGE analysis; format: biochemical; details: 50 mM ammonium acetate, pH 7.0, 20 h at 30° C., loss of signal on PAGE (FIG. 8)
T1 sequence (Q59289 25-659): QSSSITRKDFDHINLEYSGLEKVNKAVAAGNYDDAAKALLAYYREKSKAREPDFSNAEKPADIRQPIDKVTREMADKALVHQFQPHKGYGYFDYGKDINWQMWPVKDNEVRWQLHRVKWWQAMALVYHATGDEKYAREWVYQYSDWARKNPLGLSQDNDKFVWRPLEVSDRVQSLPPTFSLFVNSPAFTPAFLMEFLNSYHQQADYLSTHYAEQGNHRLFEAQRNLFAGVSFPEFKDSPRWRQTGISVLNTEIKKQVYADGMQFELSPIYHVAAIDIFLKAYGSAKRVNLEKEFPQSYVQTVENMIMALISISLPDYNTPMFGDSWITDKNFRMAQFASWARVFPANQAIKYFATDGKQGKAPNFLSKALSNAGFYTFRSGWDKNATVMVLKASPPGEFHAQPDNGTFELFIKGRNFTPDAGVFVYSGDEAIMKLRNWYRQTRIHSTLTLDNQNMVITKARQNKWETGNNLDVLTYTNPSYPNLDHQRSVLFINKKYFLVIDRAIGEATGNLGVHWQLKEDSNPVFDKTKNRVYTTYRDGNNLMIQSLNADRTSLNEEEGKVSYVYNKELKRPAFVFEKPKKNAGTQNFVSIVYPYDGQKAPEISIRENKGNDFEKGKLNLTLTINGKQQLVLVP
Procedure: Polymerization reactions and PAGE analysis. HEP trisaccharide (30 ng/ul) was incubated with 10 mM […] and either 10 mM 4-thio- or authentic UDP-GlcNAc, with PmHS-G (0.5 mg/ml), 1 mM MnCl2, and 50 mM Hepes, pH 7.2, for 20 h at 30° C. The reactions were then diluted in water and split into two aliquots, (i) a untreated control (−) and (ii) a heparin lyase III treated in 50 mM ammonium acetate, pH 7.0, for 20 h at 30° C. (+). The samples were then analyzed on a 6% 1×TBE PAGE (250 V, 15 min) and stained with 0.05% Alcian Blue followed by silver staining (BioRad Silver Stain kit).
Polymerization reactions producing longer HEP chains with either native (4-OH) or analog (4-SH) donors were analyzed for size on PAGE gels and stained. The gel depicts the polysaccharides made with both natural UDP-donors (native HEP) or by using the thio-GlcNAc analog and UDP-GlcA to form Hemi-A HEP.
Both polymers were challenged with bacterial heparin lyase III (+lanes). […] This finding is predicted as the enzyme digests the C—O—C glycosidic link that still exists in both types of HEP species.

Molecule | 3H radioactivity at the origin (dpm) (PmHS-B) | 3H radioactivity at the origin (dpm) (PmHS-D) | 3H radioactivity at the origin (dpm) (PmHS-G) | 3H radioactivity at the origin (dpm) (PmHS-I) | 3H radioactivity at the origin (dpm) (PmHS-J) | 3H radioactivity at the origin (dpm) (PmHS-A) | Susceptibility to digestion by bacterial heparin lyase [1]
CC(=O)N[C@H]1[C@@H](OP(=O)(O)OP(=O)(O)OC[C@H]2O[C@@H](n3ccc(=O)[nH]c3=O)[C@H](O)[C@@H]2O)O[C@H](CO)[C@@H](S)[C@@H]1O [UDP-4S-GlcNAc, UDP-4-SH-GlcNAc] | 800 * dpm | 42 dpm | 510 * dpm | 42 dpm | 480 * dpm | – | –
CC(=O)N[C@H]1[C@@H](OP(=O)(O)OP(=O)(O)OC[C@H]2O[C@@H](n3ccc(=O)[nH]c3=O)[C@H](O)[C@@H]2O)O[C@H](CO)[C@@H](O)[C@@H]1O [UDP-GlcNAc, UDP-N-acetylglucosamine] | 9,020 dpm | 4,140 dpm | 8,900 dpm | 3,900 dpm | 12,200 dpm | 9,230 dpm | –
(-4-GlcA-1-beta-S-4-GlcNAc-1-alpha-O)n [Hemi-A HEP] | – | – | – | – | – | – | sensitive to digestion
